Publication PMC11472310, “Distinctive Immune Signatures Driven by Structural Alterations in Desmuramylpeptide NOD2 Agonists” (Journal of Medicinal Chemistry, 2024)

Test system: CD8+ T cells cocultured with BMDCs
Test: BMDC antigen cross-presentation to ovalbumin-specific CD8+ T cells (OT I)
Assay type: cell-based, C57BL/6 mouse
Conditions: BMDCs pretreated 10 μM + ovalbumin 50 μg/mL 18 h, coculture 72 h; OVA-treated cells 23.3%
Description: For this study, we narrowed down the selection of suitable desmuramylpeptides even further. In order to assess the adjuvant potential of selected desmuramylpeptides with regard to their effect on DC-mediated activation of CD4^+ and CD8^+ T cells, we conducted an ex vivo antigen-presentation assay utilizing C57BL/6 mouse bone marrow-derived DCs (BMDCs). Upon stimulation with desmuramylpeptides at 10 μM, in conjunction with ovalbumin soluble protein (50 μg/mL), BMDCs were cocultured with carboxyfluorescein succinimidyl ester (CFSE)-labeled naïve ovalbumin-specific CD4^+ or CD8^+ T cells, which were isolated from splenocytes of OT II and OT I transgenic mice, respectively. […] Additionally, we investigated how the priming of T cells elicited by the tested compounds impacted the cytokine profiles secreted in BMDC/T-cell cocultures.
CD4^+ and CD8^+ T cells were isolated from splenocytes of OT II and OT I transgenic mice using CD4^+ and CD8^+ T cell isolation kits (Miltenyi Biotec, Germany) following the manufacturer’s instructions. The purified T cells were labeled with CFSE (Invitrogen, Carlsbad, CA, USA) and subsequently washed. Next, 5 × 10^4 T cells were combined with 1 × 10^4 BMDCs/well (pretreated with desmuramylpeptides at 10 μM and 50 μg/mL ovalbumin [Invivogen, San Diego, CA, USA] for 18 h and then washed). Following a 72-h incubation period at 37 °C with 5% CO2, supernatants were harvested and stored at −80 °C for cytokine analysis. The cells were then stained with Fixable viability dye eFluor 780 (eBioscience, Thermo Fisher Scientific, MA, USA), anti-Thy1.2-PE-Cy7 antibodies (Biolegend, San Diego, CA, USA), anti-CD8-eFluor450 antibodies (eBioscience), anti-CD4-eFluor450 antibodies (eBioscience), and anti-CD25-APC antibodies (Biolegend) before analysis using a Beckman Coulter Cytoflex S flow cytometer (CA, USA) and FlowJo software (Tree Star, Inc., Ashland, OR, USA). Live Thy1.2+/CD4+ and Thy1.2+/CD8+ cells were assessed for CFSE dilution and CD25 expression. […] Statistical significance was determined using paired t tests.

## CCCC(=O)Oc1ccc(/C=C/C(=O)NCC(=O)N[C@H](C(=O)N[C@H](CCC(=O)OCC)C(=O)OCC)C(C)C)cc1OC [Compound 3, Diethyl ((E)-3-(4-(Butyryloxy)-3-methoxyphenyl)acryloyl)glycyl-L-valyl-D-glutamate]
  fraction of activated and proliferating CD8+ T-cells (CD25+, CFSE low): 29.3%

## CC/C=C\C/C=C\C/C=C\C/C=C\C/C=C\CCCC(=O)Oc1ccc(/C=C/C(=O)NCC(=O)N[C@H](C(=O)N[C@H](CCC(=O)OCC)C(=O)OCC)C(C)C)cc1OC [Compound 23, Diethyl ((E)-3-(4-(((5Z,8Z,11Z,14Z,17Z)-Icosa-5,8,11,14,17-pentaenoyl)oxy)-3-methoxyphenyl)acryloyl)glycyl-L-valyl-D-glutamate]
  fraction of activated and proliferating CD8+ T-cells (CD25+, CFSE low): 34.1%
